{"source": "patent US8293917B2", "about": "“Pyrazole compounds as CCR1 antagonists” (Boehringer Ingelheim International GmbH, priority 2008, dated 2012)", "note": "Where “and” joins values, the source holds several entries; their conditions need not be identical. Identical values can stand only once."}
{"target": "T1, CCR1 (Homo sapiens, UniProt P32246)", "T1 construct": "host or cells: non-adherent cells", "T1 sequence (P32246 1-355)": "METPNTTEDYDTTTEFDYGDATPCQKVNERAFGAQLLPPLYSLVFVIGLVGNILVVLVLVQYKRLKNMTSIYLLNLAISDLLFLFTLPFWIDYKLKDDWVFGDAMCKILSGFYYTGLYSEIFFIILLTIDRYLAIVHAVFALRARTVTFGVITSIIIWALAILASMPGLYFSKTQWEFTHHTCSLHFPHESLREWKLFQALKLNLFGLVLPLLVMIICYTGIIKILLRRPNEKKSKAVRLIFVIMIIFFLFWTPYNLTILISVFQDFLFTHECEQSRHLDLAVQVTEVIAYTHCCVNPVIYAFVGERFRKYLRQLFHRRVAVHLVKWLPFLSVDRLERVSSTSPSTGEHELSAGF", "experiment": "functional cellular assay measuring calcium flux in response to MIP1α in CCR1-transfected cells (Method A or Method B)", "format": "cell-based", "conditions": "cells stably expressing recombinant CCR1 and G-alpha-16; MIP-1alpha added at EC80; method (A: FLIPR TETRA, B: FDSS6000) not stated per compound", "description": "Compounds are assessed for the ability to block the interaction of CCR1 and its ligands in a functional cellular assay measuring calcium flux in response to MIP1α in CCR1-transfected cells.\nMethod A: Non-adherent cells purchased from Chemicon Corporation (HTS005C), stably expressing recombinant CCR1 and G-alpha-16 are grown in RPMI 1640 medium (Mediatech 10-080-CM) supplemented with 10% heat-inactivated FBS, 0.4 mg/mL Geneticin and penicillin/streptomycin. On the day of the assay, the cells are transferred to a beaker and dye-loaded in bulk using a Fluo-4 NW Calcium Assay Kit with probenecid (Invitrogen F36205) at 0.8E6 cells/mL for 1 hour at room temperature. After 1 hour, they are seeded in a 384-well tissue culture-treated plate at a density of 20,000 cells/well. Appropriately diluted test compound is added to the well to achieve a top concentration of 3,000 nM (diluted 3-fold with 10 doses total). The final concentration of DMSO is 1%. The buffer is HBSS (Invitrogen 14025) with 20 mM HEPES at pH 7.4. The cells are allowed to incubate 1 hour in the dark at room temperature. The plates are transferred to the FLIPR TETRA where MIP-1alpha in 1% BSA is added at the EC80 final concentration. Wells +/−MIP-1alpha containing diluted DMSO instead of compound serve as the controls. Intracellular calcium flux is recorded on the FLIPR TETRA, using excitation at 470/495 nm and emission at 515/575 nm. Data are analyzed using Activity Base software.\nMethod B: Non-adherent cells purchased from Chemicon Corporation (HTS005C), stably expressing recombinant CCR1 and G-alpha-16 are grown in RPMI 1640 medium (Mediatech 10-080-CM) supplemented with 10% FBS, 0.4 mg/mL Geneticin and penicillin/streptomycin. On the day of the assay, the cells are loaded with Calcium 4 dye (Molecular Devices R7448) with Probenecid (Invitrogen P346400) at 8E5 cells/mL for 1 hour at room temperature. After 1 hour, they are seeded in a 384-well tissue culture-treated plate at a density of 20,000 cells/well. Appropriately diluted test compound is added to the well to achieve a top concentration of 3,000 nM (diluted 4-fold with 10 doses total). The final concentration of DMSO is 1%. The buffer is HBSS (Invitrogen 14025) with 20 mM HEPES at pH 7.4. The cells incubate 30 minutes at 37 C and then 30 minutes at room temperature. The plates are transferred to the HAMAMATSU FDSS6000 where MIP-1alpha in 1% BSA is added at the EC80 final concentration. All plates must be read within 4 hours of the start of dye-loading. Wells +/−MIP-1alpha containing diluted DMSO instead of compound serve as the controls. Data are analyzed using Activity Base software."}
{"smiles": "CCCC(NC(=O)c1cnn(-c2ccc(Cl)cc2)c1C)c1cncc(S(=O)(=O)NC)c1", "note": "(centres unmarked) [1-(4-Chloro-phenyl)-5-methyl-1H-pyrazole-4-carboxylic acid [1-(5-methylsulfamoyl-pyridin-3-yl)-butyl]-amide]", "IC50": "4.1 nM"}
{"smiles": "CCCC(NC(=O)c1cnn(-c2ccc(Cl)cc2)c1C)c1cncc(S(N)(=O)=O)c1", "note": "(centres unmarked) [1-(4-Chloro-phenyl)-5-methyl-1H-pyrazole-4-carboxylic acid [1-(5-sulfamoyl-pyridin-3-yl)-butyl]-amide]", "IC50": "31 nM and 35 nM"}
{"smiles": "CCCC(NC(=O)c1cnn(-c2ccc(Cl)cc2)c1C)c1ccc(S(=O)(=O)C2CC2)nc1", "note": "(centres unmarked) [1-(4-Chloro-phenyl)-5-methyl-1H-pyrazole-4-carboxylic acid [1-(6-cyclopropanesulfonyl-pyridin-3-yl)-butyl]-amide]", "IC50": "53 nM"}
{"smiles": "CCCC(NC(=O)c1cnn(-c2ccc(Cl)cc2)c1C)c1ccc(S(=O)(=O)N(C)C)nc1", "note": "(centres unmarked) [1-(4-Chloro-phenyl)-5-methyl-1H-pyrazole-4-carboxylic acid [1-(6-dimethylsulfamoyl-pyridin-3-yl)-butyl]-amide]", "IC50": "12 nM"}
{"smiles": "CCCC(NC(=O)c1cnn(-c2ccc(Cl)cc2)c1C)c1ccc(S(=O)(=O)CC)nc1", "note": "(centres unmarked) [1-(4-Chloro-phenyl)-5-methyl-1H-pyrazole-4-carboxylic acid [1-(6-ethanesulfonyl-pyridin-3-yl)-butyl]-amide]", "IC50": "60 nM"}
{"smiles": "CCCC(NC(=O)c1cnn(-c2ccc(Cl)cc2)c1C)c1ccc(S(=O)(=O)NC)nc1", "note": "(centres unmarked) [1-(4-Chloro-phenyl)-5-methyl-1H-pyrazole-4-carboxylic acid [1-(6-methylsulfamoyl-pyridin-3-yl)-butyl]-amide]", "IC50": "6.3 nM"}
{"smiles": "CC[C@H](NC(=O)c1cnn(-c2ccc(Cl)cc2)c1C)c1ccnc(S(C)(=O)=O)c1", "note": "[1-(4-Chloro-phenyl)-5-methyl-1H-pyrazole-4-carboxylic acid [(S)-1-(2-methanesulfonyl-pyridin-4-yl)-propyl]-amide]", "IC50": "29 nM"}
{"smiles": "CC[C@H](NC(=O)c1cnn(-c2ccc(Cl)cc2)c1C)c1cnc(S(C)(=O)=O)s1", "note": "[1-(4-Chloro-phenyl)-5-methyl-1H-pyrazole-4-carboxylic acid [(S)-1-(2-methanesulfonyl-thiazol-5-yl)-propyl]-amide]", "IC50": "57 nM"}
{"smiles": "CC[C@H](NC(=O)c1cnn(-c2ccc(Cl)cc2)c1C)c1ccnc(S(=O)(=O)NC)c1", "note": "[1-(4-Chloro-phenyl)-5-methyl-1H-pyrazole-4-carboxylic acid [(S)-1-(2-methylsulfamoyl-pyridin-4-yl)-propyl]-amide]", "IC50": "19 nM"}
{"smiles": "CCC[C@H](NC(=O)c1cnn(-c2ccc(Cl)cc2)c1C)c1cccc(Br)c1", "note": "[1-(4-Chloro-phenyl)-5-methyl-1H-pyrazole-4-carboxylic acid [(S)-1-(3-bromo-phenyl)-butyl]-amide]", "IC50": "28 nM"}
{"smiles": "C=CCCC[C@H](NC(=O)c1cnn(-c2ccc(Cl)cc2)c1C)c1cccc(C(F)(F)F)c1", "note": "[1-(4-Chloro-phenyl)-5-methyl-1H-pyrazole-4-carboxylic acid [(S)-1-(3-trifluoromethyl-phenyl)-hex-5-enyl]-amide]", "IC50": "30 nM"}
{"smiles": "CCC[C@H](NC(=O)c1cnn(-c2ccc(Cl)cc2)c1C)c1ccc(F)c(C(F)(F)F)c1", "note": "[1-(4-Chloro-phenyl)-5-methyl-1H-pyrazole-4-carboxylic acid [(S)-1-(4-fluoro-3-trifluoromethyl-phenyl)-butyl]-amide]", "IC50": "10 nM"}
{"smiles": "CC[C@H](NC(=O)c1cnn(-c2ccc(Cl)cc2)c1C)c1ccc(F)c(C(F)(F)F)c1", "note": "[1-(4-Chloro-phenyl)-5-methyl-1H-pyrazole-4-carboxylic acid [(S)-1-(4-fluoro-3-trifluoromethyl-phenyl)-propyl]-amide]", "IC50": "13 nM"}
{"smiles": "CC[C@H](NC(=O)c1cnn(-c2ccc(Cl)cc2)c1C)c1cncc(Br)c1", "note": "[1-(4-Chloro-phenyl)-5-methyl-1H-pyrazole-4-carboxylic acid [(S)-1-(5-bromo-pyridin-3-yl)-propyl]-amide]", "IC50": "20 nM"}
